Results: patent publication US20160271162A1, “D-ALANINE PHOSPHORAMIDE PRONUCLEOTIDES OF 2'-METHYL 2'-FLURO GUANOSINE NUCLEOSIDE COMPOUNDS FOR THE TREATMENT OF HCV” (IDENIX PHARMACEUTICALS, LLC, priority 2013, published 2016)

What was measured:
[1] = Cytotoxicity evaluation, CellTiter-Blue cell viability; type: cell-based; settings: human, Zluc cells (HCV replicon), CellTiter-Blue Cell Viability Assay
Description: For cytotoxicity evaluation, Zluc cells were treated with compound as described herein, and cell viability was monitored using the CellTiter-Blue Cell Viability Assay (Promega) by adding 20 μL of the assay solution to each well. The plates were then incubated at 37° C./5% CO2 for at least 3 hours. Fluorescence was detected in plates using excitation and emission wavelengths of 531 and 595 nm, respectively, in a Victor^3 V 1420 multilabel counter (Perkin Elmer) and CC50 values were determined using Microsoft Excel and XLfit 5.2 software.

HCV genotype 1b replicon = experiment: HCV replicon assay (luciferase reporter); type: cell-based; settings: Hepatitis C virus, Huh-7-derived Zluc cells, 72 hours incubation
Description: Huh-7-derived cell line (Zluc) that harbors an HCV genotype 1b replicon and a luciferase reporter gene was grown in Dulbecco's Modified Eagle Medium (DMEM) supplemented with 10% fetal bovine serum, 2 mM GlutaMAX, 1% MEM nonessential amino acids, 100 IU/mL penicillin, 100 μg/mL streptomycin, and 0.5 mg/mL Geneticin® (G418). For dose response testing the cells were seeded in 96-well plates at 7.5×10^3 cells per well in a volume of 50 μl, and incubated at 37° C./5% CO2. Drug solutions were made up freshly in Huh-7 media as 2× stocks. Ten additional 5-fold dilutions were prepared from these stocks in DMEM without G418. At least three hours after Zluc cells were seeded, drug treatment was initiated by adding 50 μL of drug dilutions to the plates in duplicate. Final concentrations of drug ranged from 100 μM to 0.0000512 μM. […] After 72 hours of incubation, the inhibition of HCV replication was measured by quantification of photons emitted after mono-oxygenation of 5′-fluoroluciferin to oxyfluoroluciferin by firefly luciferase. […] The plates were shaken gently for 3 min at room temperature and luminescence was measured on a Victor^3 V 1420 multilabel counter (Perkin Elmer) with a 1 second read time using a 700 nm cut-off filter. The EC50 values were calculated from dose response curves from the resulting best-fit equations determined by Microsoft Excel and XLfit 5.2 software. […]

[2] = Liver pharmacokinetics following a single oral dose in CD-1 mice; type: in vivo; settings: 2′-Me-2′-F-G TP in liver, single oral dose 10 mg/kg in PEG 200, CD-1 male mice, 4, 12 and 24 hours post dose
Description: A single oral dose of test compound at 10 mg/kg for 104a and 104b in PEG 200 (dose volume 5 mL/kg) is administered to nine CD-1 male mice. Five untreated animals are used for the collection of control plasma and liver. Terminal plasma and liver samples are collected from three animals per time point at 4, 12 and 24 hours post dose. Liver specimens are collected from all animals immediately after the incision. Freezing forceps stored in liquid nitrogen are used to freeze the liver before excision.
Liver samples are analyzed for the active species 2′-methyl-2′-fluoroguanosine triphosphate (2′-Me-2′-F-G TP) by LC-MS/MS. 2′-Me-2′-F-G TP levels are assayed by homogenizing (on ice) a known weight of mouse liver with 4× volume of 0.95 M trichloroacetic acid (TCA). Internal standard solution is added to the homogenate followed by neutralization with 20% ammonium hydroxide solution and addition of 500 μL 1% formic acid. The tissue samples are extracted by weak anion exchange solid phase extraction (SPE). Post extraction, the eluates are evaporated under nitrogen, followed by reconstitution before injection onto the LC-MS/MS system. […] The analyte is detected and quantified by tandem mass spectrometry in positive ion mode on an API4000 equipped with a Turbo Ionspray® interface. […]

## CCOc1nc(N)nc2c1ncn2C1O[C@H](COP(=O)(N[C@H](C)C(=O)OC(C)C)Oc2ccccc2)[C@@H](O)[C@@]1(C)F (stereo partly drawn) [Compound 104a]
[1]
  CC50 at 72 h: > 50 µM
HCV genotype 1b replicon
  EC50: 250 to 1000 nM
[2]
  Mouse Liver TP AUC0-24: +++ (500 < +++ ≦ 2000)

## CCOc1nc(N)nc2c1ncn2C1O[C@H](CO[P@@](=O)(N[C@H](C)C(=O)OC(C)C)Oc2ccccc2)[C@@H](O)[C@@]1(C)F (stereo partly drawn) [Compound 104b]
[1]
  CC50 at 72 h: > 50 µM
HCV genotype 1b replicon
  EC50: 250 to 1000 nM
[2]
  Mouse Liver TP AUC0-24: +++ (500 < +++ ≦ 2000)
